Patent publication US20100249138A1, “MPZP: A SMALL MOLECULE CORTICOTROPIN-RELEASING FACTOR TYPE 1 RECEPTOR (CRF1) ANTOGONIST” (priority 2007, published 2010)

Tests used:
[1] = test system: precipitated-withdrawal induced anxiety-like behavior; assay: Defensive burying test during mecamylamine-precipitated nicotine withdrawal; assay type: in vivo, rat
Method: Nicotine hydrogen tartrate salt (Sigma, Natick) was dissolved in saline at pH 7.4 and experimenter-administered via minipump or self-administered via indwelling jugular catheter. Doses are expressed as free base. Mecamylamine (Sigma; Natick, Mass.) was dissolved in saline and administered i.p. (1 ml/kg). The CRF1 antagonist (N,N-bis(2-methoxyethyl)-3-(4-methoxy-2-methylphenyl)-2,5-dimethyl-pyrazolo-[1,5α]pyrimidin-7-amine, or MPZP) was synthesized at The Scripps Research Institute by Dr. P. Wirshing, dissolved in 20% hydroxypropyl beta-cyclodextrin (Cavitron, Cargill) in isotonic saline at pH 4.5 and administered s.c. (2 ml/kg, 45 to 60 min before testing). Rat/human CRF was supplied by Dr. Jean Rivier, The Salk Institute. CRF was dissolved in 1× PBS (pH 7.4) and prepared fresh few minutes before intracerebral injection. The doses and time of injections were selected based on previous studies [Richardson et al., Program No. 783. 4 Neuroscience Meeting Planner. Atlanta, Ga.: Society for Neuroscience, OnlineI (2006); Specio et al., Program No. 777. 11 Neuroscience Meeting Planner. Washington, D.C.: Society for Neuroscience, Online (2004)].
Rats were subcutaneously implanted with osmotic minipumps delivering either saline (n=33) or nicotine (n=31) (3.16 mg/kg/day, free base, s.c.) as described above. After 14 days of pump exposure, testing was performed 5-8 hours into the dark cycle in a standard cage with 2 inches of bedding (wood shavings) along the bottom and a small hole centered in one side one inch above the bedding to accommodate the shock-probe. Rats were habituated (45 minutes) to the test cage for 2 days prior to testing. On the test day, mecamylamine or its vehicle were administered 30 minutes before behavioral testing, and the CRF1 antagonist or its vehicle were administered 45 minutes before behavioral testing (n=7-9 per group). On contact with the probe and shock delivery (using a Coulbourn precision shocker, 1.5 mA, AC, <1 s), verified by a startle response, the probe was deactivated. The latency and duration of probe-directed burying, rearing, resting, grooming, and freezing were measured from videotape over a 10 minutes period by an experimenter blind to the subject treatment condition using a computer program.

CRF1 receptors = target: T1, CRF1 receptors (Rattus norvegicus, UniProt P35353); assay: CRF receptor autoradiography, rat brain sections, CRF1-rich regions; assay type: binding; design: from tissue
T1 sequence (P35353 24-415): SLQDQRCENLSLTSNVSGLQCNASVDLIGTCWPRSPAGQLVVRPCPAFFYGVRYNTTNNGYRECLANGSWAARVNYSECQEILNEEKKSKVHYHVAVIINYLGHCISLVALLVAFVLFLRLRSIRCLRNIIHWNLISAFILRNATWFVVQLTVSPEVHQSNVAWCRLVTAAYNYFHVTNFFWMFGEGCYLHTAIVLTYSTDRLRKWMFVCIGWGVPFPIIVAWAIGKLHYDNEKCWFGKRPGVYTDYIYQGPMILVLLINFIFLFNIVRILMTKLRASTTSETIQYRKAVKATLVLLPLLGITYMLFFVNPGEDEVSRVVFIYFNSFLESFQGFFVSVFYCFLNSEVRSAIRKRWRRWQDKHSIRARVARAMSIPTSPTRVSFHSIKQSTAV
Method: For CRF receptor autoradiography, brain tissue was sectioned coronally (20 μm) using a cryostat (−17° C.). Sections were mounted on Superfrost Plus+ charged glass slides (Fisher Scientific, Pittsburgh, Pa.), permitted to dry completely, and stored in airtight boxes at −80° C. until the day of autoradiography. Autoradiography was performed using standard procedures based on the previous characterization of [^125I]Tyr^0-sauvagine [Grigoriadis et al., Mol. Pharmacol. (1996) 50:679-686].
Slides containing triplicate adjacent brain sections were thawed to room temperature and permitted to dry completely. Each section then was outlined using a PAP pen (Calbiochem, San Diego, Calif.). Sections were incubated in assay buffer (DPBS with 10 mM MgCl2, 2 mM EGTA, 1 tablet/100 ml protease inhibitor, 0.15% bovine serum albumin) for 15 minutes to remove endogenous ligand. Slides then were incubated under one of four conditions: (1) 0.2 nM […] to determine total binding; (2) 0.2 nM radiolabeled sauvagine+1 μM R121919 (below)
to determine non-CRF1 (e.g., CRF2) receptor binding; (3) 0.2 nM radiolabeled sauvagine+3 μM MPZP to determine non-CRF1 (e.g., CRF2) receptor binding using the experimental compound under study; (4) 0.2 nM radiolabeled sauvagine+0.3 μM unlabeled D-Phe-CRF12-41, a subtype-nonspecific CRF receptor antagonist, to determine non-CRF1/CRF2 (e.g., nonspecific binding). […]

[2] = test system: defensive burying model of active anxiety-like behavior; details: doses similar to 3.6-27.5 mg/kg; Fekete et al. 2003; cited from earlier work
[3] = nicotine pump, CRF1 antagonist + Mecamylamine
[4] = nicotine pump, CRF1 antagonist + Vehicle
[5] = saline pump, CRF1 antagonist + Mecamylamine
[6] = saline pump, CRF1 antagonist + Vehicle

displacement of [125I]-Tyr0-sauvagine (CRF1-like binding) (CRF1 receptors; cerebral cortex, concentration printed 1 mM): displaces the majority
displacement of [125I]-Tyr0-sauvagine binding from CRF1-rich regions (CRF1 receptors; cortex and basolateral amygdala, 3 μM): displaced most
SMILES: COCCN(CCOC)c1cc(C)nc2c(-c3ccc(OC)cc3C)c(C)nn12 [MPZP, N,N-bis(2-methoxyethyl)-3-(4-methoxy-2-methylphenyl)-2,5-dimethyl-pyrazolo[1,5-a]pyrimidin-7-amine]
Burying [1, 3]: 115 ± 24 s
Freezing [1, 3]: 7 ± 7 s
Grooming [1, 3]: 38 ± 14 s
Latency to bury [1, 3]: 82 ± 19 s
Rearing [1, 3]: 126 ± 21 s
Resting [1, 3]: 68 ± 26 s
Burying [1, 4]: 85 ± 42 s
Freezing [1, 4]: 13 ± 7 s
Grooming [1, 4]: 48 ± 18 s
Latency to bury [1, 4]: 130 ± 36 s
Rearing [1, 4]: 181 ± 21 s
Resting [1, 4]: 24 ± 11 s
anxiogenic-like effect of mecamylamine to increase burying ([1]; nicotine-dependent rats, MPZP 4 mg/kg s.c. pretreatment, mecamylamine 1.5 mg/kg i.p.): blocked
Burying [1, 5]: 143 ± 20 s
Freezing [1, 5]: 5 ± 3 s
Grooming [1, 5]: 15 ± 5 s
Latency to bury [1, 5]: 80 ± 18 s
Rearing [1, 5]: 139 ± 7 s
Resting [1, 5]: 51 ± 22 s
Burying [1, 6]: 145 ± 34 s
Freezing [1, 6]: 9 ± 8 s
Grooming [1, 6]: 26 ± 12 s
Latency to bury [1, 6]: 104 ± 29 s
Rearing [1, 6]: 183 ± 19 s
Resting [1, 6]: 11 ± 7 s
anxiety-like behavior in the defensive burying test [2]: reduced anxiety-like behavior
